ED50 of chemotaxis data for 1 compound are collected here from patent publication US5015629A, “Tissue repair” (University of Southern California, priority 1990, dated 1991).

The test system of this experiment is bovine endothelial cells. Format: cell-based. The procedure: In a second example, the effects of angiotensin II on proliferation (mitogenesis) and directional migration (chemotaxis) of endothelial cells were determined. In this regard, it is important to consider that tissue repair requires proper neovascularization, and that new blood vessel growth for wound repair requires endothelial cell replication, migration and orientation. Wound healing factors must be able to stimulate chemotaxis and cell proliferation in addition to initiating new blood vessel growth. The proliferation (mitogenesis) and the directional orientation of such cells (chemotaxis) was studied in vitro using bovine aortal endothelial cells. […] Background radioactivity (noncell-associated) was assessed by removing some filters immediately after the addition of cells prior to cellular migration, and processing these control filters the same way as the test filters. […] The latter was calculated by the following formula: [formula] where R equals the radioactivity in cpm associated with each test filter, B equals the cpm obtained from the background filters, T equals the cpm obtained from a volume (V) of cells in suspension at a known concentration (C) and S equals the cpm obtained from the cell supernate (noncellular, or unbound radioactivity). […]

Regarding `CC[C@H](C)[C@H](NC(=O)[C@H](Cc1ccc(O)cc1)NC(=O)[C@@H](NC(=O)[C@H](CCCNC(=N)N)NC(=O)[C@@H](N)CC(=O)O)C(C)C)C(=O)N[C@@H](Cc1c[nH]cn1)C(=O)N1CCC[C@H]1C(=O)N[C@@H](Cc1ccccc1)C(=O)O` [angiotensin II], the ED50 of chemotaxis is listed as 3 nanogram/ml.
